Literature values, collected in patent US20120209535A1, “METHOD FOR GENERATING BIOMARKER REFERENCE PATTERNS” (BASF Plant Science Company GmbH, priority 2009, published 2012).
Where two headings read alike, the source gives them in different places.

What was measured:
liver = details: known effect
bladder = details: known effect
[1] = known effect

Compound	liver carcinogen (liver)	liver enzyme inducer (liver)	bladder carcinogen (bladder)	immunosuppressant [1]	lipid accumulation in the liver (liver)	peroxisome proliferation effect (peroxisome proliferation)	peroxisome proliferation effect (peroxisome proliferation; expert knowledge and/or literature information)
CC(=O)Nc1ccc2c(c1)Cc1ccccc1-2 [2-Acetylaminofluorene]	liver carcinogen	potent liver enzyme inducer	bladder carcinogen	immunosuppressant	–	–	–
CC(=O)Nc1cccc2c1-c1ccccc1C2 [4-acetylaminofluorene]	no liver carcinogen	weak liver enzyme inducer	–	immunosuppressant	lipid accumulation in the liver	–	–
CCCCOC(=O)c1ccccc1C(=O)OCCCC [dibutyl phthalate]	–	–	–	–	–	have the abovementioned effect	–
Cc1cc(Cl)ccc1O[C@@H](C)C(=O)O [mecoprop-p]	–	–	–	–	–	–	have the abovementioned effect
